Assays:
Assay type in all cases: physicochemical
[1] = Cyclic voltammetry (redox potentials, diffusion coefficients); details: 1 mM in 0.2M TBAPF6/CH3CN; for D (diffusion coefficient): Randles-Sevcik equation
[2] = Galvanostatic bulk electrolysis (BE) cycling in H-cell; details: for Cyclic voltammograms before and after BE (decomposition check): 0.1M TBAPF6/CH3CN, scan rate 0.2 V·s^−1
Procedure: BE experiments were performed in custom-made H-cells. The H-cell has two electrolyte chambers separated by an ultra-fine porous glass frit (P5, Adams and Chittenden) which prevents the mixing of the electrolytes. Two homemade reticulated vitreous carbon (45 PPI, Duocel®) electrodes, placed in both chambers separately served as the working and counter electrodes. A non-aqueous Ag/Ag^+ (silver wire immersed in CH3CN containing 0.1 M TBABF4 and 0.01 M AgBF4) electrodes was used as a reference electrode and was placed next to the working electrode in the same chamber. In addition, a 3 mm-glassy carbon electrode (CH Instruments, Inc.) was attached to the working electrode chamber to record CVs before and after bulk electrolysis experiments. In each of the working and the counter electrode chambers, 3.5 mL of electrolyte containing a given concentration of the neutral active species and 0.1 M TBAPF6/CH3CN were added to both the working and the counter electrode chambers for charge-discharge cycling. The voltage cut-offs were determined by recording a CV in the working electrode side prior to the start of the bulk electrolysis experiment. The values of the cut-off voltage were set by adding 0.3 V to the calculated half-way oxidation potential determined by CV. Both the working and the counter electrode chambers were stirred throughout the bulk electrolysis experiments at a stirring speed of 900 rpm to maintain mass transfer during charging and discharging. The experiment was conducted at variable C-rates, starting with 3 C then 2 C and finally 1 C with 8 cycles run at each C-rate. The galvanostatic control and data acquisition were achieved by incorporating a BioLogic VSP potentiostat.
Galvanostatic bulk electrolysis (BE) cycling was performed to monitor the charged species self-discharge by following the coulombic efficiency (CE). BE is particularly interesting because it provides deeper insights on the electrochemical stability of the electroactive compounds upon continuous galvanostatic cycling. More information about this technique is provided in the supplementary information. Essentially, if trace impurities existing in the electrolyte trigger self-discharge of the charged species, a relatively large portion of oxidized species will switch to its uncharged form if the concentration of active species is low. However, at elevated concentrations, the relative concentration of impurities with respect to active species will be considerably lower and their effect will be minimized. In other words, higher CEs are expected when the active species concentration is larger.
CE is calculated by dividing the amount of charge passed during discharging (Qdischarge) by the amount of charge passed during charging (Qcharge). A considerably lower than 99% CE indicates instability and decomposition of active material via parasitic processes. It is known that CE is affected by the C-rate at which the battery is charged/discharged. Higher C-rates usually yield higher CEs due to the fact that less time is given for unwanted parasitic processes to consume the charged species, unlike in slow C-rates where such processes are allowed to consume charge leading to lower CEs.
BE cycling was performed at three different C-rates 3 C, 2 C, and 1 C with eight charge/discharge cycles at each C-rate. At slower charge-discharge rates, the accessed capacities were higher. This is expected due to the increase in the cell polarization at faster cycling rates.

[3] = UV-NIR spectroscopy of radical cations (IVCT band, Hush analysis); details: for ν1/2, Hush (Hush-theory predicted band width): predicted from νmax at 298 K; for ν1/2 (measured IVCT band width) / νmax (IVCT band): radical cation, 0.5 mM in pure CH3CN
Procedure: In an argon-filled glove box, 0.5 mM solutions of neutral and radical cation were prepared in acetonitrile and pipetted into 1 mm path length optical glass cuvettes. The choice of this path length of cuvette is dictated by the aim to prevent the UV-vis detector saturation of the intensely colored cationic species. All samples destined to UV-vis stability monitoring contained 0.1 M TBAPF6 whereas UV-NIR samples were in pure CH3CN. Solutions were added to the cuvettes inside an argon filled glovebox, sealed with a Teflon screw cap and removed from the glovebox for spectral analysis. UV-vis spectra were collected in an Agilent 8453 diode-array spectrometer. Spectra were collected at 0, 1, 3, 4, 5, 6 and 24 h after dissolution.
The synthesized cations were also characterized using UV-NIR spectroscopy (FIG. 3). From FIG. 3 it can be clearly seen that the spectra of the charged forms change dramatically as compared to the neutral forms. […] These values match perfectly to those reported by Lambert and Noll for the same molecules using spectroelectrochemistry in 0.1 M TBAPF6 in dichloromethane.^21
Class II or III assignment is based on electronic spectroscopy; the broadness and line shape of the IVCT transition is analyzed in this case. Analysis of the line broadness and line shape of the IVCT band is also used to determine whether a mixed-valence species belongs to Class II or III. Hush theory provides a relationship that simplifies at 298 K to:
where vmax is the maximum absorption of the IVCT band given in […].

| SMILES | E^o′1 (first redox potential) [1] | E^o′2 (second redox potential) [1] | ΔE (E^o′2 − E^o′1) [1] | D (diffusion coefficient) [1] | Cyclic voltammograms before and after BE (decomposition check) [2] | Capacity retention during BE ([2]; all C-rates (3 C, 2 C, 1 C)) | ν1/2, Hush (Hush-theory predicted band width) [3] | ν1/2 (measured IVCT band width) [3] | νmax (IVCT band) [3] | νmax (IVCT band) ([3]; listed as 1^⋅) | Capacity retention during BE ([2]; after 8 cycles at 1 C) | Capacity retention during BE ([2]; after 8 cycles at 2 C) | Capacity retention during BE ([2]; after 8 cycles at 3 C) |
| --- | --- | --- | --- | --- | --- | --- | --- | --- | --- | --- | --- | --- | --- |
| COc1ccc(N(c2ccc(OC)cc2)c2ccc(N(c3ccc(OC)cc3)c3ccc(OC)cc3)cc2)cc1 [1^+⋅] | 0.00 V vs Cp2Fe^0/+ | 0.38 V vs Cp2Fe^0/+ | 0.38 | 4.49 10^−6 cm^2 · s^−1 | nearly identical | ~99% | 4756 cm⁻¹ | 3846 cm⁻¹ | 9790 cm⁻¹ | ~10000 cm⁻¹ | – | – | – |
| COc1ccc(N(c2ccc(OC)cc2)c2ccc(-c3ccc(N(c4ccc(OC)cc4)c4ccc(OC)cc4)cc3)cc2)cc1 [2^+⋅] | 0.17 V vs Cp2Fe^0/+ | 0.33 V vs Cp2Fe^0/+ | 0.16 | 1.81 10^−6 cm^2 · s^−1 | identical CVs | good capacity retention | 4740 cm⁻¹ | 3524 cm⁻¹ | 9728 cm⁻¹ | – | – | – | – |
| Cc1ccc(C(F)(F)F)cc1N(c1ccc(N(c2cc(C(F)(F)F)ccc2C)c2cc(C(F)(F)F)ccc2C)cc1)c1cc(C(F)(F)F)ccc1C [3^+⋅] | 0.41 V vs Cp2Fe^0/+ | 0.91 V vs Cp2Fe^0/+ | 0.50 | 7.67 10^−6 cm^2 · s^−1 | nearly identical features | – | 5448 cm⁻¹ | 4018 cm⁻¹ | 12849 cm⁻¹ | – | 94% | 97% | 99% |
| Cc1ccc(C(F)(F)F)cc1N(c1ccc(-c2ccc(N(c3cc(C(F)(F)F)ccc3C)c3cc(C(F)(F)F)ccc3C)cc2)cc1)c1cc(C(F)(F)F)ccc1C [4^+⋅] | 0.53 V vs Cp2Fe^0/+ | 0.69 V vs Cp2Fe^0/+ | 0.16 | 1.54 10^−6 cm^2 · s^−1 | substantial decrease in the peak heights | remarkable capacity decay | 4362 cm⁻¹ | 2519 cm⁻¹ | 8238 cm⁻¹ | – | – | – | – |

— patent publication US20250304526A1, “HIGH AND MULTIPLE REDOX POTENTIAL, STABLE, AND SOLUBLE BIS-DIARYLAMINE DERIVATIVES AND USES THEREOF” (University of Kentucky Research Foundation, priority 2024, published 2025)
